Measured values reported in patent publication US9359275B2, “Natural product antibiotics and analogs thereof” (Children's Medical Center Corporation, priority 2012, dated 2016).
Converted amounts (≈) assume the structure as drawn. Like-named read-outs stand apart in the source and are kept apart here.

How the values were obtained:
[1] = test system: K. pneumoniae carbapenemase positive ATCC BAA-1705; experiment: MIC, microdilution broth method in CAMHB; format: cell-based, Klebsiella pneumoniae
V. cholerae PW357 = experiment: MIC, microdilution broth method in CAMHB; format: cell-based, Vibrio cholerae
[2] = test system: M. tuberculosis H37Rv ATCC 27294; experiment: MIC, microplate-based Alamar blue assay (MABA); format: cell-based, Mycobacterium tuberculosis
MRSA ATCC BAA-976 = experiment: MIC, microdilution broth method in CAMHB; format: cell-based, Staphylococcus aureus
E. coli ATCC 25922 = experiment: MIC, microdilution broth method in CAMHB; format: cell-based, Escherichia coli
P. aeruginosa ATCC 27853 = experiment: MIC, microdilution broth method in CAMHB; format: cell-based, Pseudomonas aeruginosa
V. cholerae [3] = experiment: Medium acidification (sugar fermentation) assay in pH-MMSuc, A615; conditions: 30° C.
Protocol: The assays were carried out at 30° C. in pH-MMSuc to monitor sugar fermentation by A615 (FIGS. 5A, 5B, and 5C) or in MMPyr to monitor bacterial growth by OD615 (D, E, and F).
The assays were carried out at 30° C. in pH-MMSuc to monitor sugar fermentation by A615.
A minimal medium (MM) supplemented with sucrose (0.5% wt/vol), thymol blue (0.006% wt/vol) and bromothymol blue (0.006% wt/vol) (pH-MM^Suc) was used for the HTS (Houot et al., J Bacteriol (2008) 190: 311-320).
Conditions were tested in duplicate in each experiment, and two experimental replicates were performed on separate days.

V. cholerae [4] = experiment: Growth assay in MMPyr (OD615) and plating for CFU; conditions: with the assay described
Protocol: The assays were carried out at 30° C. in pH-MMSuc to monitor sugar fermentation by A615 (FIGS. 5A, 5B, and 5C) or in MMPyr to monitor bacterial growth by OD615 (D, E, and F). Bacteria were exposed to compound 1 (FIGS. 5A and 5D), compound 2 (FIGS. 5B and 5E) or compound 3 (FIGS. 5C and 5F) at concentrations ranging from 14 to 383 μM.
In secondary screens, MM was also supplemented with glucose (0.5% wt/vol), thymol blue (0.006% wt/vol), and bromothymol blue (0.006% wt/vol) (pH-MM^Glu') or pyruvate (0.5% wt/vol) (MM^Pyr).
Conditions were tested in duplicate in each experiment, and two experimental replicates were performed on separate days. […] To determine whether this represented bacteriostatic or bactericidal activity, dilutions of the cell suspensions were plated on LB agar after 20 hours of growth in MM^Pyr supplemented with compound 1 at a concentration of 383 μM.

[5] = Klebsiella pneumoniae, ATCCBAA1705, K. pneumoniae carbapenemase positive ATCC BAA-1705, read-out: MIC
[6] = Vibrio cholerae, V. cholerae PW357, read-out: MIC
[7] = Mycobacterium tuberculosis, M. tuberculosis H37Rv ATCC 27294, Alamar Blue Assay, ≧90% inhibition, read-out: MIC
[8] = Staphylococcus aureus, MRSA ATCC BAA-976, read-out: MIC
[9] = Escherichia coli, ATCC25922, E. coli ATCC 25922, read-out: MIC
[10] = Pseudomonas aeruginosa, ATCC27853, P. aeruginosa ATCC 27853, read-out: MIC

Row | Compound | MIC [1, 5] [µg/mL] | MIC (V. cholerae PW357; [6]) [µg/mL] | MIC [2, 7] [µg/mL] | MIC (MRSA ATCC BAA-976; [8]) [µg/mL] | MIC (E. coli ATCC 25922; [9]) [µg/mL] | MIC (P. aeruginosa ATCC 27853; [10]) [µg/mL] | also measured
1 | CC1(C)S[C@@H]2[C@H](NC(=O)[C@H](N)c3ccccc3)C(=O)N2[C@H]1C(=O)O [AMP, ampicillin] | > 80 | 2.5 (≈ 7.15 µM) | 0.25 (≈ 0.715 µM) | > 80 | 2.5 (≈ 7.15 µM) | > 80 | –
2 | CC1(O)CCC(c2c(O)cc3c(c2O)C(=O)c2c(O)cc(O)cc2C3=O)CO1 (centres unmarked) [SC3-22-19] | – | – | – | – | – | – | sugar utilization (V. cholerae [3]): decreased sugar utilization
3 | CC1Cc2c(ccc(O)c2CO)O1 (centres unmarked) [Compound 2, 5-hydroxy-4-(hydroxymethyl)-2-methyl 2,3-dihydrobenzofuran] | – | – | – | – | – | – | antibacterial activity (in words) (V. cholerae [4]): demonstrated anti-bacterial activity
4 | CCCC1=C(CO)C(=O)C=CC1=O [Compound 3, 2-(hydroxymethyl)-3-propyl benzoquinone] | – | – | – | – | – | – | antibacterial activity (in words) (V. cholerae [4]): little to no antibacterial activity
5 | CCCc1c(O)ccc(O)c1CO [Compound 1, 2-(hydroxymethyl)-3-propyl hydroquinone] | – | – | – | – | – | – | MIC ([1]; Klebsiella pneumoniae, ATCCBAA1705): > 80 µg/mL; concentration at which medium acidification was completely blocked (V. cholerae [3]): 261 µM; concentration at which medium acidification was inhibited (V. cholerae [3]): 134 µM; MIC (V. cholerae PW357; Vibrio cholerae, PW357): 40 µg/mL (≈ 220 µM); MIC ([2]; Mycobacterium tuberculosis): 25 µg/mL (≈ 137 µM); MIC (MRSA ATCC BAA-976; Staphylococcus aureus): 10 µg/mL (≈ 54.9 µM); MIC (E. coli ATCC 25922; Escherichia coli, ATCC25922): 80 µg/mL (≈ 439 µM); MIC (P. aeruginosa ATCC 27853; Pseudomonas aeruginosa, ATCC27853): 80 µg/mL (≈ 439 µM)
6 | C[C@@H](O)[C@H]1C(=O)N2C(C(=O)O)=C(SCCN=CN)C[C@H]12 [IMI, imipenem] | > 80 | 1.25 (≈ 4.18 µM) | 100 (≈ 334 µM) | 1.25 (≈ 4.18 µM) | 1.25 (≈ 4.18 µM) | 5 (≈ 16.7 µM) | –
7 | C[C@H]1COc2c(N3CCN(C)CC3)c(F)cc3c(=O)c(C(=O)O)cn1c23 [LEVO, levofloxacin] | > 80 | < 0.005 | 0.25 (≈ 0.692 µM) | 0.312 (≈ 0.863 µM) | 0.019 (≈ 0.0526 µM) | 1.25 (≈ 3.46 µM) | –
8 | bactrim [TMP/SMX] | – | – | – | – | – | – | MIC ([1]; K. pneumoniae carbapenemase positive ATCC BAA-1705): >16 µg/mL; MIC (V. cholerae PW357; V. cholerae PW357): >16 µg/mL; MIC ([2]; M. tuberculosis H37Rv ATCC 27294, Alamar Blue Assay, ≧90% inhibition): 2 µg/mL; MIC (MRSA ATCC BAA-976; MRSA ATCC BAA-976): 0.062 µg/mL; MIC (E. coli ATCC 25922; E. coli ATCC 25922): 0.125 µg/mL; MIC (P. aeruginosa ATCC 27853): >16 µg/mL
